In article PMC5352051, “Identification of a novel Polo-like kinase 1 inhibitor that specifically blocks the functions of Polo-Box domain” (Oncotarget, 2016):

Assays:
Plk2 PBD = target: T1, Plk2 PBD (Homo sapiens, UniProt Q9NYY3); test: Fluorescence polarization assay, Plk2 PBD / FITC-labeled phosphopeptide; format: binding; settings: FP assay, 1 hr preincubation at RT, read-out: Apparent IC50
T1 construct: (326-603 aa), Plk2 (355-685 aa), and Plk3 (335-646 aa); GST (N); made in house; host or cells: E. coli Rosetta BL21(DE3)
T1 sequence (Q9NYY3 355-685): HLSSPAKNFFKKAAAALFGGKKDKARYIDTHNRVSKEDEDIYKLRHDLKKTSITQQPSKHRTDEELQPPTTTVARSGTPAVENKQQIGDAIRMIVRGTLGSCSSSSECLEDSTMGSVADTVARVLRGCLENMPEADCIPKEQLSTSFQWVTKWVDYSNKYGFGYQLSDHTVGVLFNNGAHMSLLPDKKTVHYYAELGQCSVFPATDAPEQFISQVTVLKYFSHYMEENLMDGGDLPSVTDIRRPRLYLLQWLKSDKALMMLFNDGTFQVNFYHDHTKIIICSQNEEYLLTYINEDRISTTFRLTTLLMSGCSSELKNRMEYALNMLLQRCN
Method: FP assay was performed as follow. Briefly, 30 μL Plk1 PBD proteins (400 nM) were incubated with 0.3 μL tested compounds (1 mg/mL) with shaking for 1 hr at room temperature (RT) prior to addition of 30 μL FITC-Poloboxtide (FITC-GPMQSpTPLNG-OH; λex/λem: 485/535 nm; 60 nM) in FP buffer (50 mM Tris-HCl, 10 mM NaCl, 1 mM EDTA pH8.0). Three wells containing 30 μL FITC-Poloboxtide (60 nM) and 30 μL Plk1 PBD (400 nM) were used as negative control (0% inhibition); three wells containing 60 μL FITC-Poloboxtide (30 nM) only were used as positive control (100% inhibition). Fluorescence polarization was analyzed after incubation of FITC-Poloboxtide for 15 min in a 384-well black opaque microplate (Cat# 6007270, PerkinElmer) using Envision Multilabel Reader (PerkinElmer) at 25°C. We calculated the percentage of inhibition for each sample as follows: Inhibition(%)=Negative−Sample/Negative−Positive×100%
We plotted the inhibition values and determined IC50 using GraphPad Prism5.0. Together with the FITC-labeled peptides used for Plk1 PBD as mentioned above, the following peptides were used for specificity assays, FITC-GPMQTSpTPKNG-OH (Plk2 PBD), FITC-GPLATSpTPKNG-OH (Plk3 PBD). As described above for the FP assay, proteins were used at the following final concentrations: Plk1 PBD, 200 nM; Plk2 PBD, 450 nM; Plk3 PBD, 600 nM. All FITC-labeled peptides were chemically synthesized (China Peptides Co., Ltd., Shanghai) and further verified by mass spectrometry, and the purity is more than 95.0%.

Plk3 PBD = target: T2, Plk3 PBD (Homo sapiens, UniProt Q9H4B4); test: Fluorescence polarization assay, Plk3 PBD / FITC-labeled phosphopeptide; format: binding
T2 construct: (326-603 aa), Plk2 (355-685 aa), and Plk3 (335-646 aa); GST (N); made in house; host or cells: E. coli Rosetta BL21(DE3)
T2 sequence (Q9H4B4 335-646): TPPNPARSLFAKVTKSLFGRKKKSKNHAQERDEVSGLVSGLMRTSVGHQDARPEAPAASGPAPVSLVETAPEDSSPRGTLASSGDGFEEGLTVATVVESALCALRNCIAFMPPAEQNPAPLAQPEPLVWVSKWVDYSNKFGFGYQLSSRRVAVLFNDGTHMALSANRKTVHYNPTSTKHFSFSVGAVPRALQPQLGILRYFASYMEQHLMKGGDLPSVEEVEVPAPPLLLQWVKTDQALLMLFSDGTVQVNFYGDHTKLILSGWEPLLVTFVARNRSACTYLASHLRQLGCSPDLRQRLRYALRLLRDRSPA
Method: FP assay was performed as follow. […] We calculated the percentage of inhibition for each sample as follows: Inhibition(%)=Negative−Sample/Negative−Positive×100%
We plotted the inhibition values and determined IC50 using GraphPad Prism5.0. Together with the FITC-labeled peptides used for Plk1 PBD as mentioned above, the following peptides were used for specificity assays, FITC-GPMQTSpTPKNG-OH (Plk2 PBD), FITC-GPLATSpTPKNG-OH (Plk3 PBD).

[1] = tested on: Plk1, Cyclin B1 and pHH-3 in HeLa cells; test: Western blot of mitotic markers; format: cell-based, human; settings: synchronized HeLa, 50 ng/mL, 16 hrs, control for mitotic arrest
Method: HeLa cells were collected after trypsinization and lysed with RIPA buffer. Equal amount of proteins (30 μg/lane) were loaded, separated by 15% SDS-PAGE. After blocking with blocking buffer for 2 hrs at RT, the membrane was incubated with the following primary antibodies diluted in blocking buffer overnight at 4°C: anti-hPlk1 mouse monoclonal antibody (Cat# P5998; Sigma; 1:3000), anti-CyclinB1 rabbit polyclonal antibody (Cat# SAB4503501; Sigma; 1:2000), anti-pHH3 rabbit monoclonal antibody (Cat# 04-817; Millipore; 1:2000), anti-GAPDH rabbit polyclonal antibody (Cat# P30008; Abmart; 1:2000). The membrane was washed 3 times and then incubated with Horseradish Peroxidase-conjugated secondary antibodies for 1 hr at RT and visualized with ECL system (Millipore). The level of GAPDH was used as the loading control.

SMILES: CC1=CC(=O)C(C(C)C)=C/C1=N/OC(=O)c1ccccc1C [Poloxin, reference compound]
- IC50 (Plk2 PBD): 15.6 ± 2.26 µM

SMILES: CC1=CC(=O)C(C(C)C)=CC1=O [TQ, Thymoquinone, reference compound]
- IC50 (Plk3 PBD): 18.9 ± 1.32 µM
- IC50 (Plk2 PBD): 3.65 ± 0.96 µM

SMILES: COC(=O)Nc1nc2ccc(C(=O)c3cccs3)cc2[nH]1 [Nocodazole, reference compound]
- mitotic markers (Plk1, Cyclin B1, pHH-3) protein levels [1]: increase of protein levels
